{"source": "patent US9115142B2", "about": "“Heterocycle-substituted piperazino-dihydrothienopyrimidines” (Boehringer Ingelheim International GmbH, priority 2007, dated 2015)", "biological_target": "PDE4B (Homo sapiens, UniProt Q07343)", "sequence (Q07343 whole entry, species assumed)": "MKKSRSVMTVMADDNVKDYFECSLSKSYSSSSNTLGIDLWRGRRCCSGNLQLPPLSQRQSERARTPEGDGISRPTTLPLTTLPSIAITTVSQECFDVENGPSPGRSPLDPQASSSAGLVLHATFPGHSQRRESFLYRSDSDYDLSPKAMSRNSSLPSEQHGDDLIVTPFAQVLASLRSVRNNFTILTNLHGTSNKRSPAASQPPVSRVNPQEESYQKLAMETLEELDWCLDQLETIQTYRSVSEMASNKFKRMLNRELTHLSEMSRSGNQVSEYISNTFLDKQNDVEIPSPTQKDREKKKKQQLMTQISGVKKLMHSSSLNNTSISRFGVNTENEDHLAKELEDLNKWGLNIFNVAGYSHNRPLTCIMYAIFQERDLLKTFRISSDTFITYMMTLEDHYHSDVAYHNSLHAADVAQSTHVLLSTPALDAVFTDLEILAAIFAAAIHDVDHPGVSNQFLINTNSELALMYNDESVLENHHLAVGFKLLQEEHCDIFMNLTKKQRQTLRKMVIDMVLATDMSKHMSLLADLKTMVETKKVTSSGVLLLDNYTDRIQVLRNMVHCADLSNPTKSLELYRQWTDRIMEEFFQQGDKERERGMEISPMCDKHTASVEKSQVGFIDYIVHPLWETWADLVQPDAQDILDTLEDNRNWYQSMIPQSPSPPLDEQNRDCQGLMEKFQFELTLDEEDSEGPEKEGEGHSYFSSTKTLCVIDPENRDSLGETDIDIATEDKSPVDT", "experiment": "Scintillation Proximity Assay (SPA) of PDE4B enzymatic activity ([H3]-cAMP cleavage)", "type": "biochemical", "conditions": "test substance 1 μM; one-hour incubation with [H3]-cAMP and PDE4B at 30° C.", "procedure": "The Scintillation Proximity Assay (SPA) (GE Healthcare, No. TRKQ7090) was carried out by using the different affinities of cyclic 3″-5″-adenosinemonophosphate (cAMP, low affinity) and linear 5″-adenosinemonophosphate (AMP, high affinity) for yttrium silicate scintillator beads. The cAMP specific phosphodiesterase (PDE) PDE4B cleaves the 3″-phosphoester bond of tritium-labelled [H3]-cAMP to form [H3]-5″-AMP. This [H3]-AMP accumulates on the scintillator beads because of its higher affinity for them and causes scintillation events (flashes of light) which are measured in a Wallac Microbeta Scintillation Counter.\nThe experiment starts with a one-hour incubation of [H3]-cAMP with the PDE4B enzyme in assay buffer at 30° C., in each case once with the Example substance to be tested (in a concentration of 1 μM) and once without the Example substance to be tested.\nAfter this incubation, the reaction is stopped by the addition of the beads. The beads have an opportunity to settle in the next 45 minutes, then the measurement is carried out in the Scintillation Counter. If the substance is capable of inhibiting the enzymatic activity of the PDE4B, less [H3]-AMP is produced during the incubation phase and fewer scintillation events can be measured.", "note": "Structures can show the parent of a compound that is named as a salt."}
{"smiles": "[O-][S+]1CCc2nc(N3CCN(c4ccncn4)CC3)nc(NC3(CO)CC3)c21", "note": "(centres unmarked) [Example 55, {1-[5-oxo-2-(4-pyrimidin-4-yl-piperazin-1-yl)-6,7-=dihydro-5H-5λ^4-thieno[3,2-d]pyrimidin-4-ylamino]-cyclopropyl}-methanol trifluoroacetate]", "values": [{"measurement": "inhibition at 1 µM", "result": 95, "unit": "%"}]}
{"smiles": "[O-][S+]1CCc2nc(N3CCN(c4ccncc4)CC3)nc(NC3(CO)CC3)c21", "note": "(centres unmarked) [Example 58, {1-[5-oxo-2-(4-pyridin-4-yl-piperazin-1-yl)-6,7-dihydro-5H-5λ^4-thieno[3,2-d]pyrimidin-4-ylamino]-cyclopropyl}-methanol trifluoroacetate]", "values": [{"measurement": "inhibition at 1 µM", "result": 91, "unit": "%"}]}
{"smiles": "CN1C[C@@H](Nc2nc(N3CCN(c4ccncn4)CC3)nc3c2[S+]([O-])CC3)CCC1=O", "note": "(stereo partly drawn) [Example 71, (S)-1-methyl-5-[5-oxo-2-(4-pyrimidin-4-yl-piperazin-1-yl)-6,7-dihydro-5H-5λ^4-thieno[3,2-d]pyrimidin-4-ylamino]-piperidin-2-one]", "values": [{"measurement": "inhibition at 1 µM", "result": 96, "unit": "%"}]}
{"smiles": "Cn1c(N2CCN(c3nc4c(c(NC5CCOCC5)n3)[S+]([O-])CC4)CC2)nc2cc(F)ccc21", "note": "(centres unmarked) [Example 87, {2-[4-(5-fluoro-1-methyl-1H-benzoimidazol-2-yl)-piperazin-1-yl]-5-oxo-6,7-dihydro-5H-5λ^4-thieno[3,2-d]pyrimidin-4-yl}-(tetrahydropyran-4-yl)-amine]", "values": [{"measurement": "inhibition at 1 µM", "result": 96, "unit": "%"}]}
{"smiles": "[O-][S+]1CCc2nc(N3CCN(c4ccncc4)CC3)nc(NC3CCOCC3)c21", "note": "(centres unmarked) [Example 96, [5-oxo-2-(4-pyridin-4-yl-piperazin-1-yl)-6,7-dihydro-5H-5λ^4-thieno[3,2-d]pyrimidin-4-yl]-(tetrahydropyran-4-yl)-amine trifluoroacetate]", "values": [{"measurement": "inhibition at 1 µM", "result": 93, "unit": "%"}]}
{"smiles": "COc1cccc2c1nc(N1CCN(c3nc4c(c(Nc5cccc(F)c5)n3)[S+]([O-])CC4)CC1)n2C", "note": "(centres unmarked) [Example 108, (3-fluorophenyl)-{2-[4-(4-methoxy-1-methyl-1H-benzimidazol-2-yl)-piperazin-1-yl]-5-oxo-6,7-dihydro-5H-5λ^4-thieno[3,2-d]pyrimidin-4-yl}-amine trifluoroacetate]", "values": [{"measurement": "inhibition at 1 µM", "result": 95, "unit": "%"}]}
{"smiles": "CCN1CCc2ncc(N3CCN(c4nc5c(c(Nc6cccc(F)c6)n4)[S+]([O-])CC5)CC3)nc2CC1", "note": "(centres unmarked) [Example 109, {2-[4-(7-ethyl-6,7,8,9-tetrahydro-5H-pyrazino[2,3-d]azepin-2-yl)-piperazin-1-yl]-5-oxo-6,7-dihydro-5H-5λ^4-thieno[3,2-d]pyrimidin-4-yl}-(3-fluorophenyl)-amine trifluoroacetate]", "values": [{"measurement": "inhibition at 1 µM", "result": 96, "unit": "%"}]}
{"smiles": "[O-][S+]1CCc2nc(N3CCN(c4ccncn4)CC3)nc(Nc3cccc(F)c3)c21", "note": "(centres unmarked) [Example 113, (3-fluorophenyl)-[5-oxo-2-(4-pyrimidin-4-yl-piperazin-1-yl)-6,7-dihydro-5H-5λ^4-thieno[3,2-d]pyrimidin-4-yl]-amine trifluoroacetate]", "values": [{"measurement": "inhibition at 1 µM", "result": 96, "unit": "%"}]}
{"smiles": "[O-][S+]1CCc2nc(N3CCN(c4ccnc(O)c4)CC3)nc(Nc3cccc(F)c3)c21", "note": "(centres unmarked) [Example 114, 4-{4-[4-(3-fluorophenylamino)-5-oxo-6,7-dihydro-5H-5λ^4-thieno[3,2-d]pyrimidin-2-yl]-piperazin-1-yl}-pyridin-2-ol]", "values": [{"measurement": "inhibition at 1 µM", "result": 96, "unit": "%"}]}
{"smiles": "[O-][S+]1CCc2nc(N3CCN(c4ccncc4)CC3)nc(Nc3cccc(F)c3)c21", "note": "(centres unmarked) [Example 117, (3-fluorophenyl)-[5-oxo-2-(4-pyridin-4-yl-piperazin-1-yl)-6,7-dihydro-5H-5λ^4-thieno[3,2-d]pyrimidin-4-yl]-amine]", "values": [{"measurement": "inhibition at 1 µM", "result": 96, "unit": "%"}]}
{"smiles": "[O-][S+]1CCc2nc(N3CCN(c4nc(-c5ccc(F)cc5)cs4)CC3)nc(Nc3cccc(F)c3)c21", "note": "(centres unmarked) [Example 142, (3-fluorophenyl)-(2-{4-[4-(4-fluorophenyl)-thiazol-2-yl]-piperazin-1-yl}-5-oxo-6,7-dihydro-5H-5λ^4-thieno[3,2-d]pyrimidin-4-yl)-amine]", "values": [{"measurement": "inhibition at 1 µM", "result": 95, "unit": "%"}]}
{"smiles": "[O-][S+]1CCc2nc(N3CCN(c4noc5ccccc45)CC3)nc(Nc3cccc(F)c3)c21", "note": "(centres unmarked) [Example 144, [2-(4-benzo[d]isoxazol-3-yl-piperazin-1-yl)-5-oxo-6,7-dihydro-5H-5λ^4-thieno[3,2-d]pyrimidin-4-yl]-(3-fluorophenyl)-amine]", "values": [{"measurement": "inhibition at 1 µM", "result": 96, "unit": "%"}]}
{"smiles": "CC(C)[C@H](CO)Nc1nc(N2CCN(c3nc(-c4ccc(F)cc4)cs3)CC2)nc2c1[S+]([O-])CC2", "note": "(stereo partly drawn) [Example 148, (R)-2-(2-{4-[4-(4-fluorophenyl)-thiazol-2-yl]-piperazin-1-yl}-5-oxo-6,7-dihydro-5H-5λ^4-thieno[3,2-d]pyrimidin-4-ylamino)-3-m ethylbutan-1-ol]", "values": [{"measurement": "inhibition at 1 µM", "result": 95, "unit": "%"}]}
{"smiles": "CC(C)[C@H](CO)Nc1nc(N2CCN(c3noc4ccccc34)CC2)nc2c1[S+]([O-])CC2", "note": "(stereo partly drawn) [Example 150, (R)-2-[2-(4-benzo[d]isoxazol-3-yl-piperazin-1-yl)-5-oxo-6,7-dihydro-5H-5λ^4-thieno[3,2-d]pyrimidin-4-ylamino]-3-methylbutan-1-ol]", "values": [{"measurement": "inhibition at 1 µM", "result": 95, "unit": "%"}]}
